One assay concerns the target T1, VHZ (LDP3) (Homo sapiens, UniProt Q9BVJ7).
T1 sequence (Q9BVJ7 1-150): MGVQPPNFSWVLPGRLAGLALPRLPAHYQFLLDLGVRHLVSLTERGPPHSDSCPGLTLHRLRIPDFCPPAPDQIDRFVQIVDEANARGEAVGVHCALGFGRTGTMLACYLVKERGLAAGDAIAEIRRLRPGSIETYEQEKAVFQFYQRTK
In words: inhibition of pNPP hydrolysis, competitive model fit. It is filed as biochemical.

A further assay addresses PTP1B (Homo sapiens, UniProt P18031). The assay is described as follows: biochemical.
Assay [1] has as its target T2, VHR (Homo sapiens, UniProt P51452). In words: biochemical.
In a further assay the target is T3, SsoPTP (Saccharolobus solfataricus, UniProt Q97VZ7).
T3 sequence (Q97VZ7 1-161): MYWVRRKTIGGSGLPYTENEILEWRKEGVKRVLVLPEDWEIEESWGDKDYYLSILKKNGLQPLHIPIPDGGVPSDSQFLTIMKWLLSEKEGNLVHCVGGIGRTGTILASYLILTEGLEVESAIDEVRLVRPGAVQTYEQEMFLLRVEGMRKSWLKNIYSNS
In words: biochemical.

In assay [2] the target is T2, VHR. The assay is described as follows: pre-steady-state burst kinetics, stopped flow at […] nm. It is filed as biochemical. Particulars: read-out: KS.

T2 sequence (P51452 whole entry): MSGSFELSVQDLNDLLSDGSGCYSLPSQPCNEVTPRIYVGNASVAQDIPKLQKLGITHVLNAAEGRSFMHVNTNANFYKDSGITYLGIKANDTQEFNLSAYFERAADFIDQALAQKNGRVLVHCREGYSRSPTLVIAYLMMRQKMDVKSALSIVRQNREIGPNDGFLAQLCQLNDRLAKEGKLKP
Chain of PTP1B (P18031 1-321 limits assumed): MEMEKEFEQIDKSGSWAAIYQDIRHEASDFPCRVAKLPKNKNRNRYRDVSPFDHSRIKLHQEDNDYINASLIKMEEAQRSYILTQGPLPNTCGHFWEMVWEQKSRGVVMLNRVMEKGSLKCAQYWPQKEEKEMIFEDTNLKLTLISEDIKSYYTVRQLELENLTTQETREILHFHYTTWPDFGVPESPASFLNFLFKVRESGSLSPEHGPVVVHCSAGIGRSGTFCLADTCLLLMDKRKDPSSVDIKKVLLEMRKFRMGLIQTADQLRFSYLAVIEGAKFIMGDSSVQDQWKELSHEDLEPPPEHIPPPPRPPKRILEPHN

For orientation: Ki means a dissociation constant, usually derived from enzyme kinetics or from competition with a known ligand. A higher Ki goes with weaker binding. `O=C(O)CN(CCN(CC(=O)O)CC(=O)O)CC(=O)O` [EDTA] yielded a Ki at VHZ (LDP3) of 22 ± 2 mM.
The same measure, in the same setting: next, `O=S(=O)(O)CCN1CCN(CCO)CC1` [HEPES]: 26 ± 3 mM.
Regarding `O=P(O)(O)O` [Inorganic phosphate], the Ki at PTP1B worked out at 3.7 ± 0.1 mM; at VHR [1], 0.7 ± 0.3 mM; on SsoPTP it was 0.54 ± 0.42 mM; at VHZ (LDP3), 0.67 ± 0.05 mM; on YopH, 4.4 ± 0.2 mM.
At VHZ (LDP3), `O=S(=O)(O)O` [Sulfate] returned a Ki of 4.6 ± 0.3 mM.
Same read-out and setting: as for `NC(CO)(CO)CO` [Tris], the figure is 88 ± 9 mM; as for `[O]=[V]([OH])([OH])[OH]` [Vanadate], 0.0027 ± 0.0003 mM.
Consider `O=[N+]([O-])c1ccc(OP(=O)(O)O)cc1` [pNPP], for which the Kd on VHR [2] came to 11.8 mM.

The values are drawn from article PMC3856698 (Biochemistry, 2013).
